Laboratory results reported in patent US20230143604A1, “QW DOSING OF GIP RECEPTOR AGONIST PEPTIDE COMPOUNDS AND USES THEREOF” (TAKEDA PHARMACEUTICAL COMPANY LIMITED, priority 2020, published 2023).
Starred links: 1 amine or outer side, 2 acyl side, 3 side chain; linkers in the order of their positions; H or OH if unused. Positions of bridges follow the written chain, without caps; N, C: chain ends. Non-standard residues stand in square brackets, D forms with d. Residues, ends and D or L forms follow the SMILES beside them. Groups on a side chain read outwards from the residue. Chains are numbered I, II in the order given. *: point of attachment. C18 diacid = O=C(O)CCCCCCCCCCCCCCCCC(=O)*; C17 diacid = O=C(O)CCCCCCCCCCCCCCCC(=O)*; γGlu = O=C(O)[C@H](CCC(=O)[*:2])N[*:1]; NMeY = CN[C@@H](Cc1ccc(O)cc1)C(=O)O; AEEA = NCCOCCOCC(=O)O; Aib = CC(C)(N)C(=O)O

Assay: physchem
Procedure, shortened: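 Solubility at pH 7.4 determined by stepwise addition of 200 mM phosphate buffer in 100 μL increments to 3 mg peptide, mixing briefly each time, until no insoluble material remained, then measured by liquid chromatography.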

[1] = pH 7.4, aqueous buffer, pH 7.4 Phosphate Buffer - Solubility, 200 mM Phosphate buffer pH 7.4

Row | Compound | solubility (pH 7.4) [mg/mL] | solubility (pH 7.4, aqueous buffer) [mg/mL] | solubility [1] [mg/mL] | solubility (pH 7.4, solubility in phosphate buffer at pH 7.4, 200 mM phosphate buffer pH 7.4) [mg/mL]
1 | CC[C@H](C)[C@H](NC(=O)[C@H](Cc1ccccc1)NC(=O)[C@@H](NC(=O)CNC(=O)[C@H](CCC(=O)O)NC(=O)C(C)(C)NC(=O)[C@@H](N)Cc1ccc(O)cc1)[C@@H](C)O)C(=O)N[C@@H](CO)C(=O)N[C@@H](CC(=O)O)C(=O)N[C@@H](Cc1ccc(O)cc1)C(=O)N[C@@H](CO)C(=O)N[C@H](C(=O)NC(C)(C)C(=O)N[C@@H](CC(C)C)C(=O)N[C@@H](CC(=O)O)C(=O)N[C@@H](CCCCN)C(=O)N[C@@H](C)C(=O)N[C@@H](CCCCNC(=O)COCCOCCNC(=O)COCCOCCNC(=O)CC[C@H](NC(=O)CCCCCCCCCCCCCCCCC(=O)O)C(=O)O)C(=O)N[C@@H](CCC(N)=O)C(=O)N[C@@H](CCC(N)=O)C(=O)N[C@@H](CC(=O)O)C(=O)N[C@@H](Cc1ccccc1)C(=O)N[C@H](C(=O)N[C@@H](CCC(=O)O)C(=O)N[C@@H](Cc1c[nH]c2ccccc12)C(=O)N[C@@H](CC(C)C)C(=O)N[C@@H](CC(C)C)C(=O)N[C@@H](C)C(=O)N[C@@H](CCC(N)=O)C(=O)N[C@@H](CCCNC(=N)N)C(=O)NCC(=O)O)C(C)C)[C@@H](C)CC [Compound 169] (H-Y[Aib]EGTFISDYSI[Aib]LDKAK([AEEA-AEEA-γGlu-C18 diacid])QQDFVEWLLAQRG-OH) | ≥ 15 | ≥ 30 | – | –
2 | CC[C@H](C)[C@H](NC(=O)[C@H](CCCNC(=N)N)NC(=O)[C@H](CC(=O)O)NC(=O)[C@H](CCCCNC(=O)CNC(=O)CNC(=O)CNC(=O)CNC(=O)CNC(=O)CCCCCCCCCCCCCCCCC(=O)O)NC(=O)[C@H](C)NC(=O)[C@@H](NC(=O)[C@H](CO)NC(=O)[C@H](Cc1ccc(O)cc1)NC(=O)[C@H](CC(=O)O)NC(=O)[C@H](CO)NC(=O)[C@@H](NC(=O)[C@H](Cc1ccccc1)NC(=O)[C@@H](NC(=O)CNC(=O)[C@H](CCC(=O)O)NC(=O)C(C)(C)NC(=O)[C@H](Cc1ccc(O)cc1)NC)[C@@H](C)O)[C@@H](C)CC)[C@@H](C)CC)C(=O)N[C@@H](C)C(=O)N[C@@H](CCC(N)=O)C(=O)N[C@@H](CCC(N)=O)C(=O)N[C@@H](CC(N)=O)C(=O)N[C@@H](Cc1ccccc1)C(=O)N[C@H](C(=O)N[C@@H](CC(N)=O)C(=O)N[C@@H](Cc1c[nH]c2ccccc12)C(=O)N[C@@H](CC(C)C)C(=O)N[C@@H](CC(C)C)C(=O)N[C@@H](C)C(=O)N[C@@H](CCC(N)=O)C(=O)N[C@@H](CO)C(=O)N1CCC[C@H]1C(=O)N[C@@H](CO)C(=O)N[C@@H](CO)C(=O)NCC(=O)N[C@@H](C)C(=O)N1CCC[C@H]1C(=O)N1CCC[C@H]1C(=O)N1CCC[C@H]1C(=O)N[C@@H](CO)C(=O)O)C(C)C [Compound 292] | – | – | < 6 | –
3 | I: H-[NMeY][Aib]EGTFISDYSIALDR[Aib]AQ[Aib]KFVNWLLAQSPSSGAPPPS-OH / II: {C18 diacid-γGlu}-PAPAPGG (amide I:21-II:C) [Compound 104] | – | – | ≥ 60 | ≥ 15
4 | CC[C@H](C)[C@H](NC(=O)[C@H](Cc1ccccc1)NC(=O)[C@@H](NC(=O)CNC(=O)[C@H](CCC(=O)O)NC(=O)C(C)(C)NC(=O)[C@@H](N)Cc1ccc(O)cc1)[C@@H](C)O)C(=O)N[C@@H](CO)C(=O)N[C@@H](CC(=O)O)C(=O)N[C@@H](Cc1ccc(O)cc1)C(=O)N[C@@H](CO)C(=O)N[C@H](C(=O)NC(C)(C)C(=O)N[C@@H](CC(C)C)C(=O)N[C@@H](CC(=O)O)C(=O)N[C@@H](CCCCN)C(=O)N[C@@H](C)C(=O)N[C@@H](CCCCNC(=O)COCCOCCNC(=O)COCCOCCNC(=O)CC[C@H](NC(=O)CCCCCCCCCCCCCCCCC(=O)O)C(=O)O)C(=O)N[C@@H](CCC(N)=O)C(=O)N[C@@H](CCC(N)=O)C(=O)N[C@@H](CC(=O)O)C(=O)N[C@@H](Cc1ccccc1)C(=O)N[C@H](C(=O)N[C@@H](CC(N)=O)C(=O)N[C@@H](Cc1c[nH]c2ccccc12)C(=O)N[C@@H](CC(C)C)C(=O)N[C@@H](CC(C)C)C(=O)N[C@@H](C)C(=O)N[C@@H](CCC(N)=O)C(=O)N[C@@H](CCCNC(=N)N)C(=O)NCC(=O)O)C(C)C)[C@@H](C)CC [Compound 170] (H-Y[Aib]EGTFISDYSI[Aib]LDKAK([AEEA-AEEA-γGlu-C18 diacid])QQDFVNWLLAQRG-OH) | ≥ 15 | ≥ 30 | – | –
5 | CC[C@H](C)[C@H](NC(=O)[C@H](CCCCN)NC(=O)[C@H](CC(=O)O)NC(=O)[C@H](CC(C)C)NC(=O)[C@H](C)NC(=O)[C@@H](NC(=O)[C@H](CO)NC(=O)[C@H](Cc1ccc(O)cc1)NC(=O)[C@H](CC(=O)O)NC(=O)[C@H](CO)NC(=O)[C@@H](NC(=O)[C@H](Cc1ccccc1)NC(=O)[C@@H](NC(=O)CNC(=O)[C@H](CCC(=O)O)NC(=O)C(C)(C)NC(=O)[C@@H](N)Cc1ccc(O)cc1)[C@@H](C)O)[C@@H](C)CC)[C@@H](C)CC)C(=O)N[C@@H](C)C(=O)N[C@@H](CCC(N)=O)C(=O)N[C@@H](CCCNC(=N)N)C(=O)N[C@@H](CCCCNC(=O)COCCOCCNC(=O)COCCOCCNC(=O)CC[C@H](NC(=O)CC[C@H](NC(=O)CCCCCCCCCCCCCCCC(=O)O)C(=O)O)C(=O)O)C(=O)N[C@@H](Cc1ccccc1)C(=O)N[C@H](C(=O)N[C@@H](CCC(=O)O)C(=O)N[C@@H](Cc1c[nH]c2ccccc12)C(=O)N[C@@H](CC(C)C)C(=O)N[C@@H](CC(C)C)C(=O)N[C@@H](C)C(=O)N[C@@H](CCC(N)=O)C(=O)N[C@@H](CCCNC(=N)N)C(=O)NCC(=O)O)C(C)C [Compound 143] (H-Y[Aib]EGTFISDYSIALDKIAQRK([AEEA-AEEA-γGlu-γGlu-C17 diacid])FVEWLLAQRG-OH) | ≥ 15 | ≥ 30 | – | –
6 | CC[C@H](C)[C@H](NC(=O)[C@H](CCCCN)NC(=O)[C@H](CC(=O)O)NC(=O)[C@H](CC(C)C)NC(=O)[C@H](C)NC(=O)[C@@H](NC(=O)[C@H](CO)NC(=O)[C@H](Cc1ccc(O)cc1)NC(=O)[C@H](CC(=O)O)NC(=O)[C@H](CO)NC(=O)[C@@H](NC(=O)[C@H](Cc1ccccc1)NC(=O)[C@@H](NC(=O)CNC(=O)[C@H](CCC(=O)O)NC(=O)C(C)(C)NC(=O)[C@H](Cc1ccc(O)cc1)NC)[C@@H](C)O)[C@@H](C)CC)[C@@H](C)CC)C(=O)N[C@@H](C)C(=O)N[C@@H](CCC(N)=O)C(=O)NC(C)(C)C(=O)N[C@@H](CCCCNC(=O)COCCOCCNC(=O)COCCOCCNC(=O)CC[C@H](NC(=O)CC[C@H](NC(=O)CCCCCCCCCCCCCCCCC(=O)O)C(=O)O)C(=O)O)C(=O)N[C@@H](Cc1ccccc1)C(=O)N[C@H](C(=O)N[C@@H](CC(N)=O)C(=O)N[C@@H](Cc1c[nH]c2ccccc12)C(=O)N[C@@H](CC(C)C)C(=O)N[C@@H](CC(C)C)C(=O)N[C@@H](C)C(=O)N[C@@H](CCC(N)=O)C(=O)N[C@@H](CCCNC(=N)N)C(=O)NCC(=O)O)C(C)C [Compound 175] (H-[NMeY][Aib]EGTFISDYSIALDKIAQ[Aib]K([AEEA-AEEA-γGlu-γGlu-C18 diacid])FVNWLLAQRG-OH) | ≥ 15 | ≥ 30 | – | –
